This is an account of results in US6037335A, “Phosphonate-nucleotide ester derivatives” (Mitsubishi Chemical Corporation, priority 1993, dated 2000).

Molecules are shown by their SMILES. Where two headings read alike, the source gives them in different places. A value given as a limit tells only on which side of the number the result lay.

A word on the inhibition: it is the relative decrease from the control value, in per cent.

In data set [1] the test system is HBV. As to the kind of experiment: Inhibition of HBV growth (HBV-DNA synthesis in HB611 cells, southern blotting). Further details: dose or concentration left out as unconfirmed. In kind it is cell-based. Particulars: Hepatitis B virus, 408 h, DNA recovered day 17. As for the experimental part: (§1) HB611 cells (recombinant human lever cancer cell producing HBV, 2×10^4) was incubated on Dulbecco ME medium containing bovine fetal serum, streptomycin ([…]), penicillin (100 IU/ml) and G-418 (0.2 mg/ml) at 37° C. On the 2nd and 5th days of cultivation, the medium was changed, then the media containing specimens at final concentration of 10 mM were substituted on the 8th, 11th and 14th days. On 17 days of cultivation, DNA of the cell was recovered. The amount of HBV-DNA was measured by southern blotting, and inhibition of HBV-DNA synthesis in the cell was determined. In addition, the concentration of the compound required for 50% death of the HB611 cells was determined.

For data set [2], the system named is HBV. In words: Inhibition of HBV growth in mouse serum upon oral administration (HB611 cells cultured with 5% serum). In kind it is in vivo. Particulars: Hepatitis B virus, HB611, 0.5 h, single oral dose 0.3 g/kg, serum 30 minutes after administration, 5% serum in medium, read-out: HBV-DNA Synthesis Inhibition. As for the experimental part: (§2) Inhibition of HBV growth in rat or mouse serum upon oral administration
(§3) Groups of rats (3 rats per group) were received single oral dose of specimen (1 g/kg or 0.5 g/kg), bled at 1 hour after administration and serum was prepared. Separately, groups of mice (3 mice per group) were received single oral dose of specimen (0.3 g/kg), bled at 30 minutes after administration and serum was prepared.
(§4) HB611 cells (2×10^4) were incubated on Dulbecco ME medium containing 10% bovine fetal serum, streptomycin ([…]), penicillin (100 IU/ml) and G-418 (0.2 mg/ml) at 37° C. On the 2nd and 5th days of cultivation, the medium was changed, then substituted with a medium containing 5% of the above serum (rat or mouse serum after oral administration of the specimen) on the 8th, 11th and 14th day, and DNA of the cell was recovered on the 17th days of cultivation. The amount of HBV-DNA was measured by southern blotting, and intracellular HBV-DNA synthesis inhibition was determined. For reference, the same experiment was conducted on PMEA.

A short description of data set [3]: Concentration required for 50% death of HB611 cells. Particulars: human, read-out: LD50 of HB611 cell. In kind it is cell-based. As for the experimental part:
as §1

For data set [4], the system named is herpes simplex viruses type-I (HSV-1). Particulars: literature; cited from earlier work.
Data set [5] has as its system herpes simplex viruses type-II (HSV-2). Particulars: literature; cited from earlier work.
For data set [6], the system named is human immunodeficiency virus (HIV). Particulars: literature; cited from earlier work.
In a further data set the test system is hepatitis B virus. Particulars: literature; cited from earlier work.
For data set [7], the system named is HBV. In words: Inhibition of HBV growth in rat serum upon oral administration (HB611 cells cultured with 5% serum). In kind it is in vivo. Particulars: Hepatitis B virus, read-out: HBV-DNA Synthesis Inhibition; for inhibition at 500 mg/kg: single oral dose 0.5 g/kg. The method, then: as §2, §3, §4
Where [8] appears, read: HB611, Rat, serum 1 hour after administration, 5% serum in medium.
The mark [9] stands for this setting: HB611, Rat, single oral dose 1 g/kg, serum 1 hour after administration, 5% serum in medium.

`Nc1nc(N)c2nnn(CCOCP(=O)(OCC(F)(F)F)OCC(F)(F)F)c2n1` [Example 5, 9-[2-[bis(2,2,2-trifluoroethyl)phosphonylmethoxy]ethyl]-8-aza-2,6-diaminopurine] gave an inhibition with HBV [1] of 97.2%. For the same compound, the inhibition at 300 mg/kg with HBV [2] was 87.2%.
For the compound `Nc1nc(Cl)c2ncn(CCOCP(=O)(OCC(F)(F)F)OCC(F)(F)F)c2n1` [Example 3, 9-[2-[bis(2,2,2-trifluoroethyl)phosphonylmethoxy]ethyl]-2-amino-6-chloropurine], the inhibition in the data set with HBV [1] was found to be 99.9%. In addition, the CC50 in data set [3] was 399 µM. Besides, the inhibition at 300 mg/kg with HBV [2] came out at 99.9%.
`Cn1c(N)nc2c(ncn2CCOCP(=O)(OCC(F)(F)F)OCC(F)(F)F)c1=O` [Example 26, 9-[2-[bis(2,2,2-trifluoroethyl)phosphonylmethoxy]ethyl]-1-methylguanine] showed an inhibition with HBV [1] of 99.9%.
Regarding `Nc1nc(N)c2ncn(CCOCP(=O)(O)O)c2n1` [PMDAP, 9-(2-phosphonylmethoxy)ethyl-2,6-diaminopurine], in data set [4], the “reported to be effective on herpes simplex virus type-I” value was “effective”. Besides, in data set [5], the “reported to be effective on herpes simplex virus type-II” value is on record as “effective”. In data set [6], the “reported to be effective on human immunodeficiency virus” value is given as “effective”. In the data set on hepatitis B virus, the “reported to be effective on hepatitis B virus” value was “effective”.
Take `Nc1ncnc2c1ncn2CCOCP(=O)(OCCOc1ccccc1)OCCOc1ccccc1` [Example 15, 9-[[2-bis(2-phenoxyethyl)phosphonylmethoxy]ethyl]adenine]: in the data set on HBV [1], the inhibition turned out to be 59.7%. For the same compound, in data set [3], the CC50 came to 174 µM. In the data set with HBV [7] (setting [8]), the inhibition at 500 mg/kg is 38.5%.
Turning to `Nc1nc2ncn(CCOCP(=O)(OCC(F)(F)F)OCC(F)(F)F)c2c(=O)[nH]1` [Example 21, 7-[2-[bis(2,2,2-trifluoroethyl)phosphonylmethoxy]ethyl]guanine], the inhibition in the data set on HBV [1] amounted to 71.3%.
Same read-out and setting: for `Cc1ccc(Sc2nc(O)nc3c2ncn3CCOCP(=O)(OCC(F)(F)F)OCC(F)(F)F)cc1` [Example 25, 9-[2-[bis(2,2,2-trifluoroethyl)phosphonylmethoxy]ethyl]-2-hydroxy-6-p-toluylthiopurine] the value was 99.9%.
Regarding `CC(=O)NCCOP(=O)(COCCn1cnc2c(N)ncnc21)OCCNC(C)=O` [Reference Example 1, 9-[[2-bis(2-acetamidethyl)phosphonylmethoxy]ethyl]adenine, reference compound], the CC50 in data set [3] is more than 1000 µM. Further, the inhibition at 500 mg/kg in the data set on HBV [7] (setting [8]) was found to be 0%.
Turning to `Nc1nc2c(ncn2CCOCP(=O)(OCC(F)(F)F)OCC(F)(F)F)c(=O)[nH]1` [Example 20], the inhibition in the data set with HBV [1] worked out at 99.9%. In addition, the inhibition at 300 mg/kg in the data set on HBV [2] was 99.9%.
For `COP(=O)(COCCn1cnc2c(N)ncnc21)OCC(F)(F)F` (centres unmarked) [Example 12, 9-[2-[methyl(2,2,2-trifluoloethyl)phosphonylmethoxy]ethyl]adenine], the CC50 in data set [3] was more than 1000 µM. Also, the inhibition at 1000 mg/kg with HBV [7] (HB611, po, 1 h) was 92.9%.
Regarding `CCCCC(=O)OCCOP(=O)(COCCn1cnc2c(N)ncnc21)OCCOC(=O)CCCC` [Example 18, 9-[[2-bis(2-valeryloxyethyl)phosphonylmethoxy]ethyl]adenine], the inhibition in the data set with HBV [1] came to 73.4%. In addition, in data set [3], the CC50 is 47 µM. Besides, in the data set with HBV [7] (setting [8]), the inhibition at 500 mg/kg was 61.4%.
Consider `Nc1ncnc2c1ncn2CCOCP(=O)(OCC(F)(F)F)OCC(F)(F)F` [Example 1, 9-[2-[bis(2,2,2-trifluoroethyl)phosphonylmethoxy]ethyl]adenine], for which the inhibition with HBV [1] turned out to be 91.5%. Further, the CC50 in data set [3] was more than 1000 µM. The inhibition at 1000 mg/kg with HBV [7] (setting [9]) worked out at 89.9%.
`Nc1ncnc2c1ncn2CCOCP(=O)(OCCO)OCCO` [Reference Example 2, 9-[[2-bis(2-hydroxyethyl)phosphonylmethoxy]ethyl]adenine, reference compound]: the inhibition with HBV [1] came to 31%. Also, the CC50 in data set [3] was more than 1000 µM. Further, the inhibition at 500 mg/kg in the data set on HBV [7] (setting [8]) is 0%.
As for `Nc1ncnc2c1ncn2CCOCP(=O)(O)O` [PMEA, 9-(2-phosphonylmethoxy)ethyladenine], in the data set with HBV [7] (HB611, po, 1 h), the inhibition at 1000 mg/kg was 35.5%. Also, in data set [4], the “reported to be effective on herpes simplex virus type-I” value was “effective”. Besides, the “reported to be effective on herpes simplex virus type-II” value in data set [5] is “effective”. Moreover, the “reported to be effective on human immunodeficiency virus” value in data set [6] is recorded as “effective”. In addition, the “reported to be effective on hepatitis B virus” value with hepatitis B virus is on record as “effective”.
Regarding `Cc1ccc(Sc2nc(N)nc3c2ncn3CCOCP(=O)(OCC(F)(F)F)OCC(F)(F)F)cc1` [Example 24, 9-[2-[bis(2,2,2-trifluoroethyl)phosphonylmethoxy]ethyl]-2-amino-6-p-toluylthiopurine], the inhibition in the data set with HBV [1] is 99.9%.
Turning to `COP(=O)(COCCn1cnc2c(N)nc(N)nc21)OCC(F)(F)F` (centres unmarked) [Example 13, 9-[2-[methyl(2,2,2-trifluoloethyl)phosphonylmethoxy]ethyl]-2,6-diaminopurine], the CC50 in data set [3] is more than 1000 µM. Besides, the inhibition at 1000 mg/kg in the data set on HBV [7] (HB611, po, 1 h) came to 77.7%.
The compound `Nc1nc(N)c2ncn(CCOCP(=O)(OCC(F)(F)F)OCC(F)(F)F)c2n1` [Example 2, 9-[2-[bis(2,2,2-trifluoroethyl)phosphonylmethoxy]ethyl]-2,6-diaminopurine] returned an inhibition in the data set with HBV [1] of 99.9%. Further, the CC50 in data set [3] was determined as 840 µM. The inhibition at 1000 mg/kg with HBV [7] (setting [9]) is 71.9%.
`Nc1ncnc2c1ncn2CCOCP(=O)(OCCOCc1ccccc1)OCCOCc1ccccc1` [Example 16, 9-[[2-bis(2-benzyloxyethyl)phosphonylmethoxy]ethyl]adenine] returned an inhibition with HBV [1] of 57.8%. Further, the CC50 in data set [3] worked out at 178 µM. Also, the inhibition at 500 mg/kg with HBV [7] (setting [8]) came out at 43.6%.
For the compound `Nc1nc(Cl)c2c(ncn2CCOCP(=O)(OCC(F)(F)F)OCC(F)(F)F)n1` [Example 4, 7-[2-[bis(2,2,2-trifluoroethyl)phosphonylmethoxy]ethyl]-2-amino-6-chloropurine], the inhibition at 300 mg/kg in the data set with HBV [2] is 36.3%.
Regarding `CC(=O)OCCOP(=O)(COCCn1cnc2c(N)ncnc21)OCCOC(C)=O` [Example 17, 9-[[2-bis(2-acetoxyethyl)phosphonylmethoxy]ethyl]adenine], the inhibition in the data set on HBV [1] came out at 66.2%. Besides, the CC50 in data set [3] was more than 1000 µM.
`Nc1nc2c(ncn2CCOCP(=O)(OCC(F)(F)F)OCC(F)(F)F)c(=S)[nH]1` [Example 23, 9-[2-[bis(2,2,2-trifluoroethyl)phosphonylmethoxy]ethyl]-6-thioguanine] displayed an inhibition in the data set on HBV [1] of 86.1%.
In turn, `COCCOP(=O)(COCCn1cnc2c(N)ncnc21)OCCOC` [Example 14] registered an inhibition with HBV [1] of 55%. In addition, the CC50 in data set [3] was more than 1000 µM. Besides, in the data set with HBV [7] (setting [8]), the inhibition at 500 mg/kg turned out to be 25.4%.
The compound `Nc1c2ncn(CCOCP(=O)(OCC(F)(F)F)OCC(F)(F)F)c2nc[n+]1[O-]` [Example 22] came in with an inhibition in the data set on HBV [1] of 76.2%. In addition, in the data set on HBV [2], the inhibition at 300 mg/kg came out at 15.2%.
